ChEMBL document CHEMBL5303304, “EUbOPEN Chemogenomics Library - IncuCyte” (2023)

How the values were obtained:
Format in all cases: toxicity, cell-based
[1] = system: U2OS; assay: Incucyte cell viability with U2OS; settings: human, 10 µM, compound concentration 10 uM
[2] = system: HEK-293T; assay: Incucyte cell viability with HEK293T; settings: human, 10 µM, compound concentration 10 uM
[3] = system: Fibroblast; assay: Incucyte cell viability with human fibroblast; settings: 10 µM, compound concentration 10 uM
Further: unitless GR value; below 1 slowed growth and below 0 cell loss.

Compound	Growth Rate ([1]; 0 h, replicate number 1)	Growth Rate ([1]; 0 h, replicate number 2)	Growth Rate ([1]; 6 h, replicate number 2)	Growth Rate ([1]; 12 h, replicate number 1)	Growth Rate ([1]; 18 h, replicate number 2)	Growth Rate ([2]; 6 h, replicate number 1)	Growth Rate ([2]; 12 h, replicate number 1)	Growth Rate ([2]; 12 h, replicate number 2)	Growth Rate ([2]; 18 h, replicate number 1)	Growth Rate ([2]; 18 h, replicate number 2)	Growth Rate ([2]; 24 h, replicate number 1)	Growth Rate ([2]; 24 h, replicate number 2)	Growth Rate ([3]; 0 h, replicate number 2)	Growth Rate ([3]; 18 h, replicate number 1)	Growth Rate ([1]; 12 h, replicate number 2)	Growth Rate ([1]; 24 h, replicate number 2)	Growth Rate ([3]; 12 h, replicate number 2)	Growth Rate ([3]; 24 h, replicate number 2)	Growth Rate ([1]; 6 h, replicate number 1)	Growth Rate ([1]; 24 h, replicate number 1)	other results
Cc1nc2c([nH]1)c(=O)n(C)c(=O)n2Cc1ccco1 [FURAFYLLINE]	-0.64	-0.96	0.59	0.95	1	0.19	0.18	0.76	0.7	0.82	0.87	0.88	-0.99	0.5	–	–	–	–	–	–	Growth Rate ([2]; 6 h, replicate number 2): 0.63; Growth Rate ([3]; 6 h, replicate number 1): 0.42; Growth Rate ([3]; 12 h, replicate number 1): -1; Growth Rate ([3]; 24 h, replicate number 1): 0.65
Cc1ccc(-n2nc(C(C)(C)C)cc2NC(=O)Nc2ccc(OCCN3CCOCC3)c3ccccc23)cc1 [DORAMAPIMOD]	-1	–	–	–	0.87	0.67	0.67	–	0.87	–	0.95	–	0.08	–	0.9	0.76	–	–	–	–	Growth Rate ([2]; 0 h, replicate number 1): -0.47
COc1cc(-c2cncc(-c3cnn(C4CCNCC4)c3)c2)cc(OC)c1OC	-1	–	0.55	–	0.99	0.84	–	0.82	–	0.73	–	0.77	–	–	–	0.94	0.97	0.9	–	–	Growth Rate ([2]; 6 h, replicate number 2): 0.78; Growth Rate ([3]; 0 h, replicate number 1): 0.47; Growth Rate ([3]; 6 h, replicate number 2): 0.74; Growth Rate ([3]; 24 h, replicate number 1): 0.86
Cc1ccc(NC(=O)c2ccc3c(c2)OCCO3)cc1NC(=O)c1ccc2nc(OCCN3CCCC3)ccc2c1	0.21	–	0.35	-0.04	-0.04	-0.91	-0.78	-0.81	-0.56	-0.61	-0.43	-0.45	-0.85	-0.2	0.05	-0.01	-0.27	-0.05	0.15	-0.12	Growth Rate ([1]; 18 h, replicate number 1): -0.16; Growth Rate ([2]; 6 h, replicate number 2): -0.96; Growth Rate ([3]; 6 h, replicate number 1): -0.21; Growth Rate ([3]; 6 h, replicate number 2): -0.58; Growth Rate ([3]; 12 h, replicate number 1): -0.3; Growth Rate ([3]; 18 h, replicate number 2): -0.22; Growth Rate ([3]; 24 h, replicate number 1): -0.09
COc1cc(C(=O)NCCOCCOCCOCC(=O)N[C@H](C(=O)N2C[C@H](O)C[C@H]2C(=O)NCc2ccc(-c3scnc3C)cc2)C(C)(C)C)ccc1Nc1ncc(C(F)(F)F)c(Oc2cccc3c2C(=O)CC3)n1	–	0.63	–	–	0.66	0.29	-0.01	0.02	0	-0.01	0.03	-0.02	0.72	0.28	0.87	0.68	0.43	0.84	–	0.61	Growth Rate ([3]; 6 h, replicate number 1): 0.15; Growth Rate ([3]; 6 h, replicate number 2): -0.8; Growth Rate ([3]; 12 h, replicate number 1): 0.45; Growth Rate ([3]; 18 h, replicate number 2): 0.85; Growth Rate ([3]; 24 h, replicate number 1): 0.14
Cc1cc(OCCC(C)(C)O)cc(C)c1-c1ccc(F)c2c1CC[C@H]2Oc1ccc2c(c1)OC[C@H]2CC(=O)O	0.95	–	–	0.97	0.88	0.79	0.91	0.86	0.98	–	–	–	–	–	0.87	0.84	-0.01	0.67	0.51	0.98	Growth Rate ([1]; 18 h, replicate number 1): 0.74; Growth Rate ([2]; 0 h, replicate number 1): 0.74; Growth Rate ([2]; 0 h, replicate number 2): 0.8; Growth Rate ([3]; 0 h, replicate number 1): -0.99; Growth Rate ([3]; 6 h, replicate number 1): 0.77; Growth Rate ([3]; 18 h, replicate number 2): 0.57
CCN(c1ccccc1)c1cc(NC)[n+](C)c(C)n1.[Cl-]	–	-0.9	0.69	–	0.83	0.95	0.84	–	0.58	0.99	0.79	–	–	-0.22	0.84	–	0.8	0.91	0.41	0.87	Growth Rate ([2]; 0 h, replicate number 2): 0.56; Growth Rate ([3]; 0 h, replicate number 1): -0.7; Growth Rate ([3]; 6 h, replicate number 2): -1; Growth Rate ([3]; 24 h, replicate number 1): 0.44
COc1nc2ccc([C@@](O)(c3ccccc3)C3CCN(C(C)=O)CC3)cc2c(Cl)c1Cc1ccc(-n2cccn2)cc1 [JNJ-54119936]	-1	0.93	0.45	0.93	0.7	–	0.65	–	0.37	–	0.25	–	–	–	0.72	0.64	–	–	–	0.94	Growth Rate ([1]; 18 h, replicate number 1): 0.84; Growth Rate ([2]; 0 h, replicate number 1): -0.96; Growth Rate ([2]; 0 h, replicate number 2): -1; Growth Rate ([3]; 0 h, replicate number 1): -1; Growth Rate ([3]; 18 h, replicate number 2): 0.98
CO[C@@H](C)CN1CC[C@]2(C)c3cc(O)ccc3C[C@H]1C2(C)C.Cl	0.91	–	0.47	0.82	–	–	–	–	–	–	–	–	-0.8	1	–	–	0.89	–	0.69	–	Growth Rate ([2]; 0 h, replicate number 2): 0.15; Growth Rate ([3]; 0 h, replicate number 1): -1; Growth Rate ([3]; 6 h, replicate number 1): 0.93
O=C(O)c1cc(-c2ccccc2)ccc1O	-0.47	-0.88	–	0.69	–	–	–	–	–	–	–	0.94	–	0.96	–	–	0.44	0.79	0.63	0.87	Growth Rate ([1]; 18 h, replicate number 1): 0.88; Growth Rate ([2]; 0 h, replicate number 1): -0.37; Growth Rate ([3]; 6 h, replicate number 2): -0.01; Growth Rate ([3]; 12 h, replicate number 1): 0.95; Growth Rate ([3]; 18 h, replicate number 2): 0.67
Cc1nccn1CC1CCc2c(c3ccccc3n2C)C1=O.Cl (stereo not drawn)	-0.28	–	0.44	0.96	0.88	0.82	–	0.75	–	0.79	–	0.87	–	–	–	–	–	0.9	0.77	–	Growth Rate ([1]; 18 h, replicate number 1): 0.91; Growth Rate ([2]; 6 h, replicate number 2): 0.6
